# Like-named read-outs stand apart in the source and are kept apart here.
# How the values were obtained:
# [1] = system: 5637 human bladder carcinoma cell line; assay: IC50 determination, MTS assay, 72 h (Example 2); type: cell-based; settings: 72 hours of drug exposure
# Method: (§1) The following agents were evaluated in combination with PM00104: gemcitabine (Gemzar®) and cisplatin. The human bladder carcinoma cell lines selected for this assay were the following: 5637 and UM-UC-3 cell lines. 5637 cell line was grown in RPMI 1640 medium supplemented with 10% FBS, 1.5 g/L sodium bicarbonate, 4.5 g/L glucose, 10 mM HEPES, 1 mM sodium pyruvate, and 2 mM L-glutamine. UM-UC-3 cell line was grown in MEM Eagle's medium supplemented with 10% FBS and 2 mM L-glutamine.
# (§2) a. […] It was used the same methodology as those disclosed in Example 1.
# (§3) IC50 values were calculated from an average of three to four assays for each of the test agents.
# [2] = system: UM-UC-3 human bladder carcinoma cell line; assay: IC50 determination, MTS assay, 72 h (Example 2); type: cell-based
# Method: as §1, §2, §3
# MIA PaCa-2 tumors = type: in vivo, mice; settings: mg/kg/day: PM00104 0.90 IV
# Description: Female athymic nude mice (Harlan Sprague Dawley, Madison, Wis.) were utilized for all experiments. Animals were housed in ventilated rack caging with food and water ad libitum. The mice were acclimated for at least 5 days prior to tumor implantation with a tumor cell suspension.
# The tumor model used in these studies was MIAPaCA-2 cell line, which was obtained from the ATCC (Manassas, Va.).
# Each animal was implanted subcutaneously (SC) on the right flank, using a trochar, with 1×10^7 MIAPaCA-2 cells, from in vitro passage 18, in a 0.2 mL suspension of 50% Matrigel/50% serum free medium, without antibiotics. Matrigel is a biological extracellular matrix that is liquid at 4° C. and solid at 37° C., and it promotes tumor growth by maintaining the cells in close association in a localized area. Bacterial cultures were performed on aliquots of the cells prepared for implantation.
# Tumor measurements were determined by using Vernier calipers. The formula to calculate volume for a prolate ellipsoid was used to estimate tumor volume (mm^3) from 2-dimensional tumor measurements: Tumor volume (mm^3)=[L×W^2]÷2, where L is the length and it is the longest diameter in mm, and W is the width and it is the shortest diameter in mm of a tumor. Assuming unit density, volume was converted to weight (i.e., 1 mm^3=1 mg).
# Treatments were initiated on DPI (Day Post Implantation) 13. In these experiments, the combination therapy groups were treated by co-administering the two drugs at the same time, with no attempt to sequence the treatments.
# (§4) Tumor size measurements were recorded twice weekly from the treatment initiation until the termination of the study.
# (§5) Mean, standard deviation and standard error of the mean were determined for tumor volume for all animal groups at all assessments. Student's t test was performed on tumor volumes at each measurement day, including at the end of the study, to determine whether there were any statistically significant differences between combination treatment groups and single monotherapy treatment groups.
# The definition and criteria for the evaluation of potentiation and the degree of additivity for the combination therapy were as follows:
# Additivity was determined as discussed above by comparing the % of tumor growth inhibition of the monotherapy groups versus those of the combination group as follows: • 1. Determine the % of tumor growth inhibition, as 100-% T/C, for each of the drugs administered as monotherapy at the doses used in the combinations. % T/C was obtained by comparing the mean tumor weight in the treatment groups (T) to the mean tumor weight in the control group (C) (T/C×100%). • 2. The two scores were added together to determine the “expected response” if each agent produced the same response as it did when administered as monotherapy. • 3. This “expected response” was subtracted from the % of tumor growth inhibition determined for the combination therapy group: • a. […] If the resulting number was close to zero, the effect of combining the two drugs was determined as additive. • c.
# BxPC-3 tumors = type: in vivo, mice; settings: mg/kg/day: PM00104 0.90 IV
# Method: Female CB17.SCID mice (Charles River Lab.) were utilized for all experiments. Animals were housed in ventilated rack caging with food and water ad libitum. The mice were acclimated for at least 5 days prior to tumor implantation with a tumor cell suspension.
# The tumor model used in these studies was BxPC-3 cell line, which was obtained from the ATCC (Manassas, Va.).
# Treatments were initiated on DPI 9.
# as §4, §5
# [3] = day 13, gemcitabine 140 IP, erlotinib 100 PO
# [4] = day 15, gemcitabine 140 IP, erlotinib 100 PO
# [5] = day 19, gemcitabine 140 IP, erlotinib 100 PO
# [6] = day 22, gemcitabine 140 IP, erlotinib 100 PO
# [7] = day 27, gemcitabine 140 IP, erlotinib 100 PO
# [8] = day 29, gemcitabine 140 IP, erlotinib 100 PO
# [9] = day 33, gemcitabine 140 IP, erlotinib 100 PO
# [10] = day 36, gemcitabine 140 IP, erlotinib 100 PO
smiles,measurement,setting,value
"N.N.[Cl][Pt][Cl] [Cisplatin, cisplatin]",IC50,[1],2.4 µg/mL
same,IC50,[2]; 72 hours of drug exposure,0.53 µg/mL
"Nc1ccn([C@@H]2O[C@H](CO)[C@@H](O)C2(F)F)c(=O)n1 [Gemcitabine, gemcitabine]",IC50,"[1]; Homo sapiens, read-out: IC50",0.019 µg/mL
same,IC50,"[2]; Homo sapiens, UMUC3, 72 hours of drug exposure, read-out: IC50",0.022 µg/mL
same,% Inhibition,MIA PaCa-2 tumors; [3],0.0%
same,% T/C on day,MIA PaCa-2 tumors; [3],100.0%
same,% Inhibition,MIA PaCa-2 tumors; [4],−5.7%
same,% T/C on day,MIA PaCa-2 tumors; [4],105.7%
same,% Inhibition,MIA PaCa-2 tumors; [5],3.0%
same,% T/C on day,MIA PaCa-2 tumors; [5],97.0%
same,% Inhibition,MIA PaCa-2 tumors; [6],14.5%
same,% T/C on day,MIA PaCa-2 tumors; [6],85.5%
same,% T/C on day,MIA PaCa-2 tumors; [7],89.5%
same,% Inhibition,MIA PaCa-2 tumors; [8],13.7%
same,% T/C on day,MIA PaCa-2 tumors; [8],86.3%
same,% T/C on day,MIA PaCa-2 tumors; [9],87.7%
same,% Inhibition,MIA PaCa-2 tumors; [10],−0.3%
same,% T/C on day,MIA PaCa-2 tumors; [10],100.3%
C#Cc1cccc(Nc2ncnc3cc(OCCOC)c(OCCOC)cc23)c1 [erlotinib],% Inhibition,"BxPC-3 tumors; day 9, erlotinib 15 PO",0.5%
same,% T/C on day,"BxPC-3 tumors; day 9, erlotinib 15 PO",99.5%
same,% Inhibition,"BxPC-3 tumors; day 9, erlotinib 30 PO",−4.2%
same,% T/C on day,"BxPC-3 tumors; day 9, erlotinib 30 PO",104.2%
same,% Inhibition,"BxPC-3 tumors; day 9, erlotinib 50 PO",−2.5%
same,% T/C on day,"BxPC-3 tumors; day 9, erlotinib 50 PO",102.5%
same,% Inhibition,"BxPC-3 tumors; day 12, erlotinib 15 PO",24.1%
same,% T/C on day,"BxPC-3 tumors; day 12, erlotinib 15 PO",75.9%
same,% Inhibition,"BxPC-3 tumors; day 12, erlotinib 30 PO",15.1%
same,% T/C on day,"BxPC-3 tumors; day 12, erlotinib 30 PO",84.9%
same,% Inhibition,"BxPC-3 tumors; day 12, erlotinib 50 PO",15.1%
same,% T/C on day,"BxPC-3 tumors; day 12, erlotinib 50 PO",84.9%
same,% Inhibition,"BxPC-3 tumors; day 15, erlotinib 15 PO",7.8%
same,% T/C on day,"BxPC-3 tumors; day 15, erlotinib 15 PO",92.2%
same,% Inhibition,"BxPC-3 tumors; day 15, erlotinib 30 PO",−5.8%
same,% T/C on day,"BxPC-3 tumors; day 15, erlotinib 30 PO",105.8%
same,% Inhibition,"BxPC-3 tumors; day 15, erlotinib 50 PO",−14.2%
same,% T/C on day,"BxPC-3 tumors; day 15, erlotinib 50 PO",114.2%
same,% Inhibition,"BxPC-3 tumors; day 19, erlotinib 15 PO",21.0%
same,% T/C on day,"BxPC-3 tumors; day 19, erlotinib 15 PO",79.0%
same,% Inhibition,"BxPC-3 tumors; day 19, erlotinib 30 PO",6.5%
same,% T/C on day,"BxPC-3 tumors; day 19, erlotinib 30 PO",93.5%
same,% Inhibition,"BxPC-3 tumors; day 19, erlotinib 50 PO",−2.6%
same,% T/C on day,"BxPC-3 tumors; day 19, erlotinib 50 PO",102.6%
same,% Inhibition,"BxPC-3 tumors; day 21, erlotinib 15 PO",33.8%
same,% T/C on day,"BxPC-3 tumors; day 21, erlotinib 15 PO",66.2%
same,% Inhibition,"BxPC-3 tumors; day 21, erlotinib 30 PO",16.3%
same,% T/C on day,"BxPC-3 tumors; day 21, erlotinib 30 PO",83.7%
same,% Inhibition,"BxPC-3 tumors; day 21, erlotinib 50 PO",15.5%
same,% T/C on day,"BxPC-3 tumors; day 21, erlotinib 50 PO",84.5%
same,% Inhibition,"BxPC-3 tumors; day 26, erlotinib 15 PO",7.5%
same,% T/C on day,"BxPC-3 tumors; day 26, erlotinib 15 PO",92.5%
same,% Inhibition,"BxPC-3 tumors; day 26, erlotinib 30 PO",−14.2%
same,% T/C on day,"BxPC-3 tumors; day 26, erlotinib 30 PO",114.2%
same,% Inhibition,"BxPC-3 tumors; day 26, erlotinib 50 PO",9.0%
same,% T/C on day,"BxPC-3 tumors; day 26, erlotinib 50 PO",91.0%
same,% Inhibition,"BxPC-3 tumors; day 29, erlotinib 15 PO",16.2%
same,% T/C on day,"BxPC-3 tumors; day 29, erlotinib 15 PO",83.8%
same,% Inhibition,"BxPC-3 tumors; day 29, erlotinib 30 PO",15.2%
same,% T/C on day,"BxPC-3 tumors; day 29, erlotinib 30 PO",84.8%
same,% Inhibition,"BxPC-3 tumors; day 29, erlotinib 50 PO",40.7%
same,% T/C on day,"BxPC-3 tumors; day 29, erlotinib 50 PO",59.3%
same,% Inhibition,"BxPC-3 tumors; day 33, erlotinib 15 PO",7.9%
same,% T/C on day,"BxPC-3 tumors; day 33, erlotinib 15 PO",92.1%
same,% Inhibition,"BxPC-3 tumors; day 33, erlotinib 30 PO",13.0%
same,% T/C on day,"BxPC-3 tumors; day 33, erlotinib 30 PO",87.0%
same,% Inhibition,"BxPC-3 tumors; day 33, erlotinib 50 PO",12.1%
same,% T/C on day,"BxPC-3 tumors; day 33, erlotinib 50 PO",87.9%
same,% Inhibition,"BxPC-3 tumors; day 40, erlotinib 15 PO",18.8%
same,% T/C on day,"BxPC-3 tumors; day 40, erlotinib 15 PO",81.2%
same,% Inhibition,"BxPC-3 tumors; day 40, erlotinib 30 PO",14.5%
same,% T/C on day,"BxPC-3 tumors; day 40, erlotinib 30 PO",85.5%
same,% Inhibition,"BxPC-3 tumors; day 40, erlotinib 50 PO",15.4%
same,% T/C on day,"BxPC-3 tumors; day 40, erlotinib 50 PO",84.6%
same,% Inhibition,"MIA PaCa-2 tumors; day 13, erlotinib 50 PO",−1.5%
same,% T/C on day,"MIA PaCa-2 tumors; day 13, erlotinib 50 PO",101.5%
same,% Inhibition,MIA PaCa-2 tumors; [3],−3.3%
same,% T/C on day,MIA PaCa-2 tumors; [3],103.3%
same,% Inhibition,"MIA PaCa-2 tumors; day 15, erlotinib 50 PO",3.3%
same,% T/C on day,"MIA PaCa-2 tumors; day 15, erlotinib 50 PO",96.7%
same,% Inhibition,MIA PaCa-2 tumors; [4],−15.4%
same,% T/C on day,MIA PaCa-2 tumors; [4],115.4%
same,% Inhibition,"MIA PaCa-2 tumors; day 19, erlotinib 50 PO",−13.2%
same,% T/C on day,"MIA PaCa-2 tumors; day 19, erlotinib 50 PO",113.2%
same,% Inhibition,MIA PaCa-2 tumors; [5],−22.5%
same,% Inhibition,"MIA PaCa-2 tumors; day 22, erlotinib 50 PO",−4.4%
same,% T/C on day,"MIA PaCa-2 tumors; day 22, erlotinib 50 PO",104.4%
same,% Inhibition,MIA PaCa-2 tumors; [6],3.6%
same,% T/C on day,MIA PaCa-2 tumors; [6],96.4%
same,% Inhibition,"MIA PaCa-2 tumors; day 27, erlotinib 50 PO",−48.6%
same,% T/C on day,"MIA PaCa-2 tumors; day 27, erlotinib 50 PO",148.6%
same,% Inhibition,MIA PaCa-2 tumors; [7],4.0%
same,% T/C on day,MIA PaCa-2 tumors; [7],96.0%
same,% Inhibition,"MIA PaCa-2 tumors; day 29, erlotinib 50 PO",−32.0%
same,% T/C on day,"MIA PaCa-2 tumors; day 29, erlotinib 50 PO",132.0%
same,% Inhibition,MIA PaCa-2 tumors; [8],3.7%
same,% T/C on day,MIA PaCa-2 tumors; [8],96.4%
same,% Inhibition,"MIA PaCa-2 tumors; day 33, erlotinib 50 PO",−15.4%
same,% T/C on day,"MIA PaCa-2 tumors; day 33, erlotinib 50 PO",115.3%
same,% Inhibition,MIA PaCa-2 tumors; [9],−2.7%
same,% T/C on day,MIA PaCa-2 tumors; [9],102.7%
same,% Inhibition,"MIA PaCa-2 tumors; day 36, erlotinib 50 PO",−17.7%
same,% T/C on day,"MIA PaCa-2 tumors; day 36, erlotinib 50 PO",117.7%
same,% Inhibition,MIA PaCa-2 tumors; [10],−6.0%
same,% T/C on day,MIA PaCa-2 tumors; [10],106.0%
